34 compounds from ChEMBL document CHEMBL1155072, “Urotensin-II receptor antagonists: synthesis and SAR of N-cyclic azaalkyl benzamides” (Bioorg Med Chem Lett, 2008) can be followed below.

Experiment [1] addresses T1, Urotensin-2 receptor (Homo sapiens, UniProt Q9UKP6).
T1 sequence (Q9UKP6 whole entry): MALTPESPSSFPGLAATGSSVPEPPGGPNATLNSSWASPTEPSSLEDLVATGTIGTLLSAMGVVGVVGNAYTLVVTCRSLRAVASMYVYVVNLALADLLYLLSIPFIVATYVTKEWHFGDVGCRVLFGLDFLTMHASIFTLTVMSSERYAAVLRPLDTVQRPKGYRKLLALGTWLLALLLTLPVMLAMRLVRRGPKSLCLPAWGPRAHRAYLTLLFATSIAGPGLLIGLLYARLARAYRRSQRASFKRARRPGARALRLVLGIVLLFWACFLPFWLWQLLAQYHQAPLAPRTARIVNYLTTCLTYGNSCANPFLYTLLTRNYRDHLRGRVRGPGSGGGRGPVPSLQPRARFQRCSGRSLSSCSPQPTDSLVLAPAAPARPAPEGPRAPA
Description: Displacement of [I125]hU2 from human recombinant urotensin 2 receptor expressed in HEK293 cells. Type of experiment: cell-based.

In experiment [2] the target is T1, Urotensin-2 receptor. Description: Antagonist activity at human recombinant urotensin 2 receptor expressed in HEK293 cells assessed as inhibition of urotensin 2-induced calcium mobilization by FLIPR assay. The class given is functional, cell-based.
Experiment [3] concerns the target Cytochrome P450 3A4 (Homo sapiens) (UniProt P08684). Description: Inhibition of CYP3A4.
Experiment [4] concerns the target T2, 5-hydroxytryptamine receptor 2C (Homo sapiens, UniProt P28335).
T2 sequence (P28335 whole entry): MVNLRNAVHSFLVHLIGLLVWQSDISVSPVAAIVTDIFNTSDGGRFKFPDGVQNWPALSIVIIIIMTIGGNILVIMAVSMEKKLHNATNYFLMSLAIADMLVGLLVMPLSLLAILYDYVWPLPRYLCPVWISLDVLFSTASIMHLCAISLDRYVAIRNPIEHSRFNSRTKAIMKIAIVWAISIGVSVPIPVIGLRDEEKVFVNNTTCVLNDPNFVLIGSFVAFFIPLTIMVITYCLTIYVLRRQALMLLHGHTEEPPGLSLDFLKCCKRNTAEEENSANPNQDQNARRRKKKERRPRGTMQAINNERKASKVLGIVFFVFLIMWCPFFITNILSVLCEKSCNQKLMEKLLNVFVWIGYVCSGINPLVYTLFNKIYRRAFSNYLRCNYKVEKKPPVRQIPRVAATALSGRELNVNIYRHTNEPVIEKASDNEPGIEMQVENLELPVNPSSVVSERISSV
Description: Binding affinity at 5HT2C receptor.

The target in a further experiment is Cytochrome P450 2D6 (Homo sapiens, UniProt P10635). Description: Inhibition of CYP2D6. The class given is ADME.
Chain of Cytochrome P450 2D6 (P10635 whole entry): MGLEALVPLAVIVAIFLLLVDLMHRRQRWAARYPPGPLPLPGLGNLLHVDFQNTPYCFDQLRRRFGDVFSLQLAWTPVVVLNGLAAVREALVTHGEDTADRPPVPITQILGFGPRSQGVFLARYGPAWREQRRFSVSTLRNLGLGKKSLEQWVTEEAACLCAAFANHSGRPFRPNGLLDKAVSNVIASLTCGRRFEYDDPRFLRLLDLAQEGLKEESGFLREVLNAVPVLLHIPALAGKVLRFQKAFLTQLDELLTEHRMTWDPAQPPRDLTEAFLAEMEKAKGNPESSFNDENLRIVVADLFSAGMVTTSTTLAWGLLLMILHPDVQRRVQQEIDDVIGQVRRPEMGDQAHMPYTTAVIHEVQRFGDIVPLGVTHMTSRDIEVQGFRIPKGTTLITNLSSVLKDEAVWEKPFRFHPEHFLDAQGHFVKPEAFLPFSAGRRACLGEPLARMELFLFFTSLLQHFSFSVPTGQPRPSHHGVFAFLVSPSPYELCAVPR
In experiment [5] the target is T3, 5-hydroxytryptamine receptor 1F (Homo sapiens, UniProt P30939).
T3 sequence (P30939 whole entry): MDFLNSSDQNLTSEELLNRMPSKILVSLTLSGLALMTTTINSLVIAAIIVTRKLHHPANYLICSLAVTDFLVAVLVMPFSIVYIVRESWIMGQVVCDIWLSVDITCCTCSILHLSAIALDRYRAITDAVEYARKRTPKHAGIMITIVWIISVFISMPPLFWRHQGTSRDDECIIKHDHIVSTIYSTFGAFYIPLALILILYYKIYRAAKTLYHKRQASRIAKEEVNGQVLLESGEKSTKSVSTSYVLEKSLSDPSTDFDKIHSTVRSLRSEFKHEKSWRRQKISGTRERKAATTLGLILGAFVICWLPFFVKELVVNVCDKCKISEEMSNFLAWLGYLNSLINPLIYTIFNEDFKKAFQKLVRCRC
The experiment can be described thus: Binding affinity to 5HT1F receptor.

Experiment [6] has as its target 5-hydroxytryptamine receptor 2B (Homo sapiens, UniProt P41595). Description: Binding affinity at 5HT2B receptor.
The target in experiment [7] is T4, 5-hydroxytryptamine receptor 1A (Homo sapiens, UniProt P08908).
T4 sequence (P08908 whole entry): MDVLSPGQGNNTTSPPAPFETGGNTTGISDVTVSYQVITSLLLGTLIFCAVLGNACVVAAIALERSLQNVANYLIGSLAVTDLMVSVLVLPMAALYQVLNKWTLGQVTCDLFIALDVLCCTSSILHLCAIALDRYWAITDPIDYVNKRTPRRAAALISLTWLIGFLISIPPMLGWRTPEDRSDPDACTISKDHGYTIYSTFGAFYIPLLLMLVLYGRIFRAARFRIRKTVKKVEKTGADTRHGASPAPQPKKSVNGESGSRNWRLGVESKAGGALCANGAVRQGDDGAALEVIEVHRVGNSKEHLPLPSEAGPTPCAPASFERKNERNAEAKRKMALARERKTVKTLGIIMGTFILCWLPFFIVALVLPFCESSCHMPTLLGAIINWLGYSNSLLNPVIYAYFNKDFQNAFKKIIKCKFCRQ
The experiment can be described thus: Binding affinity to 5HT1A receptor.

Experiment [8] deals with 5-hydroxytryptamine receptor 1E (Homo sapiens, UniProt P28566). Description: Binding affinity to 5HT1E receptor.
Chain of 5-hydroxytryptamine receptor 1E (P28566 whole entry): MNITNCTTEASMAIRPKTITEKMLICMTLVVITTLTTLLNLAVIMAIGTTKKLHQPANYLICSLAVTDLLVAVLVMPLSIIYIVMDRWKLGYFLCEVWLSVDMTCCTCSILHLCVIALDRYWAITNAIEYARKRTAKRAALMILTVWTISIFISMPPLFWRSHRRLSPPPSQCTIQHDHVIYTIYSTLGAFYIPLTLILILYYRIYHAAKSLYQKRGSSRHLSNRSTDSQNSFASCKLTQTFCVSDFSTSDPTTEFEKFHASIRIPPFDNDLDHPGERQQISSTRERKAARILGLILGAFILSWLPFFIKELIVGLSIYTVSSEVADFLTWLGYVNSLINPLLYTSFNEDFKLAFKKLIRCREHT
Experiment [9] deals with 5-hydroxytryptamine receptor 6 (Homo sapiens, UniProt P50406). Description: Binding affinity to 5HT6 receptor.
Chain of 5-hydroxytryptamine receptor 6 (P50406 whole entry): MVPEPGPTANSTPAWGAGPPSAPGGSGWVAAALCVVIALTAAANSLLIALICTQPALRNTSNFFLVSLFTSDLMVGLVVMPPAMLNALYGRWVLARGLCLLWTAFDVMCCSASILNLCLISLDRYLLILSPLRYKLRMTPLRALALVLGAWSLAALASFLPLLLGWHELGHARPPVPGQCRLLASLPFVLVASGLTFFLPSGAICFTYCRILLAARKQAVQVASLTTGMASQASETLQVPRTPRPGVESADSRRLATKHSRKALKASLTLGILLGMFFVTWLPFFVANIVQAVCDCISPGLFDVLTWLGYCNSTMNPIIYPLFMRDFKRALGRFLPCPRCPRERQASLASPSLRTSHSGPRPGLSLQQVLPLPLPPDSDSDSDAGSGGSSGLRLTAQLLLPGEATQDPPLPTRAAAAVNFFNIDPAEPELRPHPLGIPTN
Experiment [10] deals with 5-hydroxytryptamine receptor 1D (Homo sapiens, UniProt P28221). The experiment can be described thus: Binding affinity to 5HT1D receptor.
Chain of 5-hydroxytryptamine receptor 1D (P28221 whole entry): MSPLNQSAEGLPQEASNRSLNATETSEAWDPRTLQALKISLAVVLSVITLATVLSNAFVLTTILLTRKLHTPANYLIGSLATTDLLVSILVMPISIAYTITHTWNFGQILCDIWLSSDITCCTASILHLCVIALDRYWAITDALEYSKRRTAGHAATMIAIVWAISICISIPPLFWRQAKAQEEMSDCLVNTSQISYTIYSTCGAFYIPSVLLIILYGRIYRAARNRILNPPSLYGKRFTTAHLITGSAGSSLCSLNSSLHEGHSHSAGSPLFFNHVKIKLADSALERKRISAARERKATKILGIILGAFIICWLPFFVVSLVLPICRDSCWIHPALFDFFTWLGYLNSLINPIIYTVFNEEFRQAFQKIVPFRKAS
A further experiment concerns the target D(2) dopamine receptor (Homo sapiens, UniProt P14416). Description: Binding affinity to dopamine D2 receptor.
Experiment [11] deals with Beta-2 adrenergic receptor (Homo sapiens, UniProt P07550). The experiment can be described thus: Binding affinity to beta 2 adrenergic receptor.
Chain of Beta-2 adrenergic receptor (P07550 whole entry): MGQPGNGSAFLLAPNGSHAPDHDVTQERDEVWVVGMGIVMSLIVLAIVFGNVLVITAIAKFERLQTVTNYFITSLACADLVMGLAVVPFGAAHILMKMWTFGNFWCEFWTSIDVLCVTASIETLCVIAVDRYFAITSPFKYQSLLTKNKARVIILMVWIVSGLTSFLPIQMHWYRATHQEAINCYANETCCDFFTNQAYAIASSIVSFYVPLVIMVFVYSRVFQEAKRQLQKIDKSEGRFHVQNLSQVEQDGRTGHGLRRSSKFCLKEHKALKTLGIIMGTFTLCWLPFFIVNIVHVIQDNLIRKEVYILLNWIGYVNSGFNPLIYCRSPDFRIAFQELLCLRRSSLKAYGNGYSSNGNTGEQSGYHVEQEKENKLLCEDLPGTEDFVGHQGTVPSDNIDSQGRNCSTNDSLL

Where only a bound is given, the exact number is not on record here.

As a reminder, the Ki is the dissociation constant of the complex between target and ligand, obtained from inhibition or displacement. The IC50 is the midpoint of a concentration-inhibition curve.

Chain of D(2) dopamine receptor (P14416 whole entry): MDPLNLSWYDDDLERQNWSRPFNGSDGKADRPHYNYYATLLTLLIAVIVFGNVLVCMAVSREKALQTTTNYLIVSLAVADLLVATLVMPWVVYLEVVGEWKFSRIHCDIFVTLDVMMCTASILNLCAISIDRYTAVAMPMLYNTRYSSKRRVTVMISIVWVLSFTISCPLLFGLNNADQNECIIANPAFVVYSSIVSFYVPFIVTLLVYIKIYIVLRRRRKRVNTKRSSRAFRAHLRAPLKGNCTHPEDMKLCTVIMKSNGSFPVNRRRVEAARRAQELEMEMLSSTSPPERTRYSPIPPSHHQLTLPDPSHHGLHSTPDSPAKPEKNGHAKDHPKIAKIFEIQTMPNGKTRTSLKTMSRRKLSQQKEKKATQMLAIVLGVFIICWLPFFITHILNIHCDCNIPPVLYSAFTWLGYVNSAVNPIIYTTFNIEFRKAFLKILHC
Chain of 5-hydroxytryptamine receptor 2B (P41595 whole entry): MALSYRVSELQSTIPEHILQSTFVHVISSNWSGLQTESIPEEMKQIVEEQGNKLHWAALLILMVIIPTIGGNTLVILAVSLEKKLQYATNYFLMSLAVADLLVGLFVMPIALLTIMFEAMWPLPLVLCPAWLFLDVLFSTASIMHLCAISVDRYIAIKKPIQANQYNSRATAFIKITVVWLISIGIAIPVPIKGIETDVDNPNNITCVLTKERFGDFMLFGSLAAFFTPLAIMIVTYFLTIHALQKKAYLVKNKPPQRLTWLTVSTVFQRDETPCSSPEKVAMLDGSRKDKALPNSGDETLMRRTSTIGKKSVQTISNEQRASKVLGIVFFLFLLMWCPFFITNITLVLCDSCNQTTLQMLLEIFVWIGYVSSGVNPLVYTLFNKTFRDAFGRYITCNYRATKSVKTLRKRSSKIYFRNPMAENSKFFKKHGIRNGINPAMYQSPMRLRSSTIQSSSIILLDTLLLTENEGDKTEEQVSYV
Chain of Cytochrome P450 3A4 (Homo sapiens) (P08684 whole entry, looked up): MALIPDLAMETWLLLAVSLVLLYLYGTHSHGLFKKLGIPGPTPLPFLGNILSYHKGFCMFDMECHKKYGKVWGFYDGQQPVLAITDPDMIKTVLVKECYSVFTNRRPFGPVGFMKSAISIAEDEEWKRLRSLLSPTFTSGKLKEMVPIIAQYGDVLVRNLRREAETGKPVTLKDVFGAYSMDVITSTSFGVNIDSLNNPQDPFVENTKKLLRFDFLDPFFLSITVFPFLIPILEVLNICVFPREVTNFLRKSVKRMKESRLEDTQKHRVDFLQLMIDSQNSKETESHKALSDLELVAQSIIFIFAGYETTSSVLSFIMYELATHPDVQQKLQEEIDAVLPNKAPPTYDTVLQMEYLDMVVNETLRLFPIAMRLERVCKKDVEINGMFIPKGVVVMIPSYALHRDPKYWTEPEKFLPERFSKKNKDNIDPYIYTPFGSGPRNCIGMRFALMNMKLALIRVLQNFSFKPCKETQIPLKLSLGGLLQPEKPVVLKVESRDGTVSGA

Take `O=C(N[C@H]1CCN(S(=O)(=O)c2ccc(OC3CCNCC3)c(Br)c2)C1)c1ccc(Cl)c(Cl)c1`: the inhibitory constant (Ki) at Urotensin-2 receptor [1] was determined as 0.12 µM. Still for that read-out and setting: with `O=C(N[C@H]1CCN(CCc2ccc(OC3CCNCC3)c(Cl)c2)C1)c1ccc(Cl)c(Cl)c1` the figure was 0.015 µM; with `CN1CCC(Oc2ccc(CN3CC[C@H](NC(=O)c4ccc(Cl)c(Cl)c4)C3)cc2Cl)C1` (mixture of isomers), 0.047 µM. Still for that read-out and setting: with `CC(C)C[C@H](NC(=O)c1cc2ccccc2s1)C(=O)N[C@H]1CCN(S(=O)(=O)c2ccc(OC3CCNCC3)c(Br)c2)C1` the figure was 0.012 µM. Same read-out and setting: with `CN(C)CCCOc1ccc(CN2CCN(C(=O)c3ccc(Cl)c(Cl)c3)CC2)cc1` the figure was over 10 µM; with `CN(C)CCCOc1ccc(CN2CC[C@H](NC(=O)c3ccc(Br)cc3)C2)cc1`, 0.32 µM; with `Cc1cc(CN2CC[C@H](NC(=O)c3ccc(Cl)c(Cl)c3)C2)ccc1OC1CCN(C)C1` (mixture of isomers), 0.108 µM. For `CN(C)CCCOc1ccc(CN(C)CCCNC(=O)c2ccc(Cl)c(Cl)c2)cc1`, the Ki on Urotensin-2 receptor [1] is over 10 µM. Same read-out and setting: with `COc1cc(CCN2CC[C@H](NC(=O)c3ccc(Cl)c(Cl)c3)C2)ccc1OC1CCNCC1` the figure was 0.036 µM. The same measure, in the same setting: with `CN1CCC(Oc2ccc(CN3CCC(NC(=O)c4ccc(Cl)c(Cl)c4)C3)cc2Br)C1` (racemic) the figure was 0.041 µM. The same measure, in the same setting: with `O=C(N[C@H]1CCN(Cc2ccc(OC3CCN(Cc4ccccc4)CC3)c(Br)c2)C1)c1ccc(Cl)c(Cl)c1` the figure was 0.23 µM; with `CN1CCC(Oc2ccc(CN3CCC(NC(=O)c4ccc(Cl)c(Cl)c4)C3)cc2)C1` (racemic), 0.097 µM. `O=C(NC1CCN(S(=O)(=O)c2ccc(OC3CCNCC3)c(Br)c2)CC1)c1ccc(Cl)c(Cl)c1`: the Ki at Urotensin-2 receptor [1] is 0.14 µM.

As to `CN(C)CCCOc1ccc(CN2CCC(NC(=O)c3ccc(Cl)c(Cl)c3)CC2)cc1`, on Urotensin-2 receptor [1], the Ki was 0.5 µM. The same measure, in the same setting: with `O=C(N[C@H]1CCN(Cc2ccc(OCCN3CCNCC3)c(Br)c2)C1)c1ccc(Cl)c(Cl)c1` the figure was 1.5 µM; with `O=C(NC1CCCCN(S(=O)(=O)c2ccc(OC3CCNCC3)c(Br)c2)C1)c1ccc(Cl)c(Cl)c1` (racemic), 0.071 µM; with `O=C(N[C@H]1CCN(CCc2ccc(OC3CCNCC3)c(Br)c2)C1)c1ccc(Cl)c(Cl)c1`, 0.01 µM.

As to `O=C(N[C@H]1CCN(Cc2ccc(O[C@H]3CCNC3)c(Br)c2)C1)c1ccc(Cl)c(Cl)c1`, the inhibition constant (Ki) at Urotensin-2 receptor [1] is 0.044 µM. The same measure, in the same setting: with `O=C(N[C@H]1CCN(CCc2ccc(OC3CCNCC3)cc2)C1)c1ccc(Cl)c(Cl)c1` the figure was 0.042 µM. As for `CN(C)CCCOc1ccc(CN2CC[C@H](NC(=O)c3ccc(Cl)c(Cl)c3)C2)cc1`, the IC50 on Urotensin-2 receptor [2] amounted to 0.17 µM. As for `CN(C)CCCOc1ccccc1CN1CC[C@H](NC(=O)c2ccc(Cl)c(Cl)c2)C1`, the Ki on Urotensin-2 receptor [1] was over 10 µM. With `O=C(N[C@H]1CCN(Cc2ccc(OC3CCNCC3)c(Br)c2)C1)c1ccc(Cl)c(Cl)c1`, the IC50 in experiment [3] worked out at 1.9 µM; on Cytochrome P450 2D6, 2.2 µM; on Urotensin-2 receptor [2], 0.004 µM. Also, the inhibitory constant (Ki) in experiment [4] was 0.085 µM; in [5] it was 7.2 µM; in experiment [6] it was 0.14 µM; in [7], 0.038 µM; in experiment [8], over 10 µM; in [9] it was 4.1 µM. For the same compound, the inhibition constant (Ki) in [10] is 0.14 µM; at Urotensin-2 receptor [1], 0.004 µM; on D(2) dopamine receptor it was 0.1 µM; in [11], over 10 µM. In the case of `O=C(N[C@H]1CCN(Cc2ccc(OCCN3CCCC3)c(Br)c2)C1)c1ccc(Cl)c(Cl)c1`, the inhibition constant Ki at Urotensin-2 receptor [1] worked out at 1 µM. Still for that read-out and setting: with `O=C(N[C@H]1CCN(CCc2ccc(OC3CCNCC3)c([N+](=O)[O-])c2)C1)c1ccc(Cl)c(Cl)c1` the figure was 0.069 µM; with `CN(C)CCCOc1ccc(CN2CC[C@H](NC(=O)c3ccc(Cl)c(Cl)c3)C2)cc1Br`, 0.061 µM. On the same count and under the same terms, with `CN(C)CCCOc1cccc(CN2CC[C@H](NC(=O)c3ccc(Cl)c(Cl)c3)C2)c1` the figure was over 3 µM; with `O=C(N[C@H]1CCN(Cc2ccc(OCCN3CCOCC3)c(Br)c2)C1)c1ccc(Cl)c(Cl)c1`, 3.5 µM; with `O=C(N[C@@H]1CCN(S(=O)(=O)c2ccc(OC3CCNCC3)c(Br)c2)C1)c1ccc(Cl)c(Cl)c1`, 0.38 µM. On the same count and under the same terms, with `O=C(N[C@H]1CCN(CCc2ccc(OC3CCNCC3)c(F)c2)C1)c1ccc(Cl)c(Cl)c1` the figure was 0.062 µM; with `CC(C)C[C@H](NC(=O)c1cc2ccccc2s1)C(=O)N[C@H]1CCN(CCc2ccc(O[C@@H]3CCNC3)c(Br)c2)C1`, 0.018 µM. As for `CC(C)C[C@H](NC(=O)c1cc2ccccc2s1)C(=O)N[C@H]1CCN(Cc2ccc(OCCCN(C)C)cc2)C1`, on Urotensin-2 receptor [1], the Ki was 0.11 µM. Still for that read-out and setting: with `CC(C)C[C@H](NC(=O)c1cc2ccccc2s1)C(=O)N[C@H]1CCN(Cc2ccc(OC3CCNCC3)c(Br)c2)C1` the figure was 0.003 µM; with `O=C(N[C@H]1CCN(Cc2ccc(O[C@@H]3CCNC3)c(Br)c2)C1)c1ccc(Cl)c(Cl)c1`, 0.0055 µM; with `CN(C)CCCOc1ccc(CN2CC[C@@H](NC(=O)c3ccc(Br)cc3)C2)cc1`, 0.35 µM.
